In article PMC6957347 (Pharmacology Research & Perspectives, 2020):

How the values were obtained:
[1] = tested on: human B and T cell cocultures; details: BioMAP T:B cocultures ref 10; cited from earlier work
[2] = tested on: rheumatoid arthritis; details: 0.5-5 mg, twice a day, PO ref 27; cited from earlier work
[3] = tested on: PI3Kβ/α; test: pAKT in PC3 cell line; assay type: cell-based

IC50 [3] [nM]	Structure (SMILES)	IgG production [1]	efficacy in rheumatoid arthritis clinical trials [2]
	[O-][n+]1cccc(-c2nc3c(Cl)cccc3cc2[C@@H](Nc2ncnc3cccnc23)C(F)(F)F)c1 [seletalisib]	attenuation of IgG production	
[…]	C[C@H](Nc1ncnc2nc[nH]c12)c1cc2cccc(Cl)c2c(=O)n1-c1ccccc1 [duvelisib]		efficacy could not be demonstrated
